Data from ChEMBL document CHEMBL1141899, “QSAR studies on 1,2-dithiole-3-thiones: modeling of lipophilicity, quinone reductase specific activity, and production of growth hormone” (Bioorg Med Chem Lett, 2005).

Key:
[1] = physchem; details: octanol/water
Description: Partition coefficient (logP)

[2] = target: NAD(P)H dehydrogenase [quinone] 1 (Homo sapiens) (UniProt P15559)
Sequence of NAD(P)H dehydrogenase [quinone] 1 (Homo sapiens) (P15559 whole entry): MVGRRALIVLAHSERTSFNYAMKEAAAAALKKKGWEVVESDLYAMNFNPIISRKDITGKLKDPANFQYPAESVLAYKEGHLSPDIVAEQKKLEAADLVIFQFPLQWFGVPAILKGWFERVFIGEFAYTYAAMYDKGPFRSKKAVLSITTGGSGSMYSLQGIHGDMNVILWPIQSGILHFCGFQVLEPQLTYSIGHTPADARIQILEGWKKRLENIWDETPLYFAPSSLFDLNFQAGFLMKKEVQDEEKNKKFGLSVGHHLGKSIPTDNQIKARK
Description: Increased quinone reductase specific activity

Row | Compound | logP [1] | Log CDQR [2]
1 | Cc1cc(=S)ss1 | 1.85 | 1.23
2 | Cc1ssc(=S)c1C |  | 1.34
3 | CCc1cssc1=S |  | 0.903
4 | S=c1ssc2c1CCCCCCCC2 | 2.53 | -0.602
5 | O=C(O)c1cssc1=S | 1.33 | 1.38
6 | COc1ccc(-c2cc(=S)ss2)cc1 |  | 1.25
7 | S=c1ccss1 |  | 0.176
8 | CC(C)(C)c1cc(=S)ss1 | 3.25 | 0.699
9 | NC(=O)c1cc(=S)ss1 | 0.01 | 1.3
10 | S=c1sscc1-c1ccccc1 |  | 0.301
11 | COc1ccc(-c2ssc(=S)c2C)cc1 |  | 1.58
12 | Cc1cssc1=S |  | 1.08
13 | S=c1cc(-c2ccccc2)ss1 |  | 1.3
14 | NC(=O)c1cssc1=S | 0.3 | 1.66
15 | S=C1CC(c2cc(=S)ss2)SS1 (configuration not stated) | 1.8 | 0.342
16 | Cc1c(-c2cnccn2)ssc1=S [OLTIPRAZ] | 2.79 | 1.34
17 | O=C(O)c1cc(=S)ss1 | 1.05 | 1.9
18 | CCc1cc(=S)ss1 |  | 0.903
